Laboratory results taken from patent publication US20240043860A1, “NOVEL HYDROXYPHENYLPYRUVATE DIOXYGENASE POLYPEPTIDES AND METHODS OF USE THEREOF” (Syngenta Crop Protection AG, priority 2020, published 2024).
Values joined by “and” are separate entries in the source; they are usually repeats but may differ in a detail not shown here. Equal values may be shown once.

Legend:
wild-type tobacco plants = assay: spray test, herbicidal damage scoring; assay type: in vivo; conditions: Table 4.1, 7 days after treatment, 100=complete death, 0=no damage, one value per plant/event
Method: (§1) Once rooted, plantlets are transferred from agar and potted into 50% peat, 50% John Innes Soil No. 3 or, for example, MetroMix® 380 soil (Sun Gro Horticulture, Bellevue, WA) with slow-release fertilizer in 3 inch round or 4 inch square pots and left regularly watered to establish for 8-12d in the glass house. Glass house conditions are about 24-27° C. day; 18-21° C. night and approximately a 14h (or longer in UK summer) photoperiod.
(§2) About 20-30 TO events are produced for a number of HPPD variant genes.
(§3) Tables 4.1-4.9 show the herbicidal damage scoring on transgenic tobacco plants 7 days after treatment. A score of 100=complete death and 0=no damage observed.

[1] = test system: transgenic tobacco plants expressing mutant HPPD SEQ ID NO: 122; assay: spray test, herbicidal damage scoring; assay type: in vivo; conditions: Table 4.4; 7 days after treatment; SEQ ID NO: 122; 100=complete death, 0=no damage; one value per event
Method: (§4) DNA sequences that encode these polypeptides (optimized for tobacco or, optionally, codon optimized according to a target crop such as soybean) were prepared synthetically. Each sequence was designed to include a 5′ fusion with TMV omega 5′ leader sequence such that they are flanked at the 5′ end with XhoI and at the 3′ end with KpnI to facilitate direct cloning into a suitable binary vector for Agrobacterium-based plant transformation.
(§5) For example, a master plate of Agrobacterium tumefaciens containing the HPPD expressing the binary vector is used to inoculate 10 ml LB (L broth) containing 100 mg/l Rifampicin plus 50 mg/l Kanamycin using a single bacterial colony. This is incubated overnight at 28° C. shaking at 200 rpm. This entire overnight culture is used to inoculate a 50 ml volume of LB containing the same antibiotics. Again this is cultured overnight at 28° C. shaking at 200 rpm. The Agrobacterium cells are pelleted by centrifuging at 3000 rpm for 15 minutes and then resuspended in MS (Murashige and Skoog) medium containing 30 g/l sucrose, pH 5.9 to an OD […]=0.6. This suspension is dispensed in 25 ml aliquots into petri dishes.
as §1, §2
(§6) Single copy events amongst the Ti plant lines are identified by their 3:1 segregation ratio (with respect to kanamycin and/or herbicide) and by quantitative RT-PCR. Seed from the thus selected Ti tobacco (var. Samsun) lines are sown in 3 inch diameter pots containing 50% peat and 50% John Innes Soil No. 3. […] HPPD expression levels were monitored by Western analysis.
as §3

[2] = test system: transgenic tobacco plants expressing mutant HPPD SEQ ID NO: 124; assay: spray test, herbicidal damage scoring; assay type: in vivo; conditions: Table 4.2, 7 days after treatment, 100=complete death, 0=no damage, one value per event
Method: as §4, §5, §1, §2, §6, §3

[3] = test system: transgenic tobacco plants expressing mutant HPPD SEQ ID NO: 125; assay: spray test, herbicidal damage scoring; assay type: in vivo; conditions: Table 4.3, 7 days after treatment, 100=complete death, 0=no damage, one value per event
Method: as §4, §5, §1, §2, §6, §3

[4] = test system: transgenic tobacco plants expressing mutant HPPD SEQ ID NO: 14; assay: spray test, herbicidal damage scoring; assay type: in vivo; conditions: for tolerance compared to SEQ ID 122 expressing plants: SEQ ID 14 plants, 800 g/ha Mesotrione, 400 g/ha Tembotrione or 400 g/ha Isoxaflutole (Table 3.2)
Method: Avena sativa HPPD or orthologues and variants thereof, for example SEQ IDs 1-63 and 122-127, were expressed in transgenic tobacco. DNA sequences that encode these polypeptides (optimized for tobacco or, optionally, codon optimized according to a target crop such as soybean) were prepared synthetically. Each sequence was designed to include a 5′ fusion with TMV omega 5′ leader sequence such that they are flanked at the 5′ end with XhoI and at the 3′ end with KpnI to facilitate direct cloning into a suitable binary vector for Agrobacterium-based plant transformation.
In one example, the TMV omega 5′ leader and a HPPD encoding gene of interest is excised using XhoI/KpnI and cloned into similarly digested binary vector pBIN 19 (Bevan, Nucl. Acids Res. (1984) behind a double enhanced 35S promoter ahead of a NOS 3′ transcription terminator and then transformed into E. coli DH5 alpha competent cells. DNA recovered from the E. coli is used to transform Agrobacterium tumefaciens LBA4404, and transformed bacteria are selected on media contain rifampicin and kanamycin. Tobacco tissue is subjected to Agrobacterium-mediated transformation using methods well described in the art or as described herein. For example, a master plate of Agrobacterium tumefaciens containing the HPPD expressing the binary vector is used to inoculate 10 ml LB (L broth) containing 100 mg/l Rifampicin plus 50 mg/l Kanamycin using a single bacterial colony. This is incubated overnight at 28° C. shaking at 200 rpm. This entire overnight culture is used to inoculate a 50 ml volume of LB containing the same antibiotics. Again this is cultured overnight at 28° C. shaking at 200 rpm. The Agrobacterium cells are pelleted by centrifuging at 3000 rpm for 15 minutes and then resuspended in MS (Murashige and Skoog) medium containing 30 g/l sucrose, pH 5.9 to an OD […]=0.6. This suspension is dispensed in 25 ml aliquots into petri dishes.
Once rooted, plantlets are transferred from agar and potted into 50% peat, 50% John Innes Soil No. 3 or, for example, MetroMix® 380 soil (Sun Gro Horticulture, Bellevue, WA) with slow-release fertilizer in 3 inch round or 4 inch square pots and left regularly watered to establish for 8-12d in the glass house. Glass house conditions are about 24-27° C. day; 18-21° C. night and approximately a 14h (or longer in UK summer) photoperiod. Humidity is adjusted to ˜65% and light levels used are up to 2000 umol/m^2 at bench level. Once new tissue emerged and plants reach the 2-4 leaf stage, some of the clones from each event are sprayed with an HPPD inhibitor of interest selected from the herbicides listed in reference to Example 1. […] For example Callisto® is mixed in water with 0.2-0.25% X-77 surfactant and sprayed from a boom on a suitable track sprayer moving at 2 mph in a DeVries spray chamber (Hollandale, MN) with the nozzle about 2 inches from the plant tops.
Plants are assessed for damage and scored at, for example, 7 and 14 days after treatment (DAT). About 20-30 TO events are produced for a number of HPPD variant genes.
Plants of events showing the least damage are grown to flowering, then bagged and allowed to self. […] Single copy events amongst the Ti plant lines are identified by their 3:1 segregation ratio (with respect to kanamycin and/or herbicide) and by quantitative RT-PCR. Seed from the thus selected Ti tobacco (var. Samsun) lines are sown in 3 inch diameter pots containing 50% peat and 50% John Innes Soil No. 3. After growth to the 3 leaf stage, plants are sprayed as described above in order to test for herbicide tolerance relative to like-treated non-transgenic tobacco plants, and also in comparison with like-treated Ti plants expressing the base HPPD SEQ IDs 122-125. HPPD expression levels were monitored by Western analysis. […]

[5] = test system: transgenic tobacco plants expressing mutant HPPD SEQ ID NO: 122; assay: spray test, herbicidal damage scoring; assay type: in vivo; conditions: Table 3.2; 14 days after treatment; best events, SEQ ID 122; 100=complete death, 0=no damage; one value per event
[6] = test system: HPPD variant APESV V200 (SEQ ID NO: 6); assay: coupled HGO assay; assay type: biochemical, Apera spica-venti
Method: (§7) DNA sequences (SEQ ID NOs: 65-118, 128, 130, 131, and 133), synthesized for expression in E. coli, by GeneWiz (USA) to encode HPPD variants (SEQ ID NOs: 5-58, 122, 124, 125 and 127) derived from either Avena sativa (SEQ ID NOs: 122, 124), Alopecurus myosuroides (SEQ ID NO: 126) or Apera spica-venti (SEQ ID NOs: 123, 125) were transformed into E coli BL21 (DE3) (New England Biolabs) and grown in 0.5 ml Terrific broth +50 ug/ml Kanamycin media in a 96-deepwell block overnight (37° C., 900rpm). 25 ul of the overnight cultures were inoculated into fresh 96-deepwell block containing 1 ml Formedium Autoinduction Media (AIM). The AIM cultures were grown for 3h at 37° C. (900rpm) and then transferred to 20° C. overnight (900rpm) to allow protein expression. The overnight cultures were centrifuged and 500 ul of Cellytic B (Sigma Aldrich) was added to resuspend the cell pellets. The coupled HGO assay (Siehl et al, 2014) is used to generate IC50 values for the HPPD variants of interest.
(§8) E. coli BL21 (DE3) cells were transformed with a pET24a vector containing a C-terminally his-tagged Arabidopsis HGO gene, grown and induced overnight as described for the HPPD variants above. The cell pellet was resuspended in phosphate buffered saline at pH 7.4 containing 10% Glycerol, 1mm Tris[2-carboxyethyl] phosphine-HCl (TCEP) plus 30 mM Imidazole and lysed using lysozyme/benzonase. The extract was clarified by low speed centrifugation and purified in the same buffer down a 1 ml His Gravitrap column. The bound HGO was eluted in 0.25M imidazole and the fractions pooled and beaded into liquid nitrogen. All procedures apart from the centrifugation and beading steps were carried out under a nitrogen atmosphere.
(§9) The coupled HGO assay is carried out by adding 10 ul of HPPD extract to a 96-well plate and then adding 40 ul of reaction buffer (50 mM Bis Tris Propane, pH7.0, 25 mM sodium-L-ascorbate, 400μM mercaptoethanol, 50 μM Fe(II)SO4). The plates are left to incubate for 5 minutes on ice. […] 200 ul of HPP/HGO (197 μM hydroxyphenylpyruvic acid, 16 μl/ml Homogentisic Acid Oxidase in reaction buffer as described above) buffer is then added to the well and the reaction is regularly monitored (e.g. every 30 seconds-5 minutes) for absorbance at 330 nm for a given time period (e.g., for between 15-60 minutes). The data can then be used to calculate the IC50 value for each HPPD variant of interest.

[7] = test system: HPPD variant APESV V209 (SEQ ID NO: 18); assay: coupled HGO assay; assay type: biochemical, Apera spica-venti
Method: as §7, §8, §9

[8] = test system: HPPD variant ALOME V162 (SEQ ID NO: 126); assay: coupled HGO assay; assay type: biochemical, Alopecurus myosuroides
Method: as §7, §8, §9

[9] = test system: HPPD variant ALOME V200 (SEQ ID NO: 7); assay: coupled HGO assay; assay type: biochemical, Alopecurus myosuroides
Method: as §7, §8, §9

[10] = test system: HPPD variant ALOME V209 (SEQ ID NO: 19); assay: coupled HGO assay; assay type: biochemical, Alopecurus myosuroides
Method: as §7, §8, §9

Cc1c(C(=O)c2cnn(C)c2O)ccc(S(C)(=O)=O)c1C1=NOCC1 [Topramezone, topramezone]
herbicidal damage scoring, Topramezone (100 g/ha) (wild-type tobacco plants): 98 and 97 and 99 and 95 | herbicidal damage scoring, Topramezone (100 g/ha) [1]: 0 | herbicidal damage scoring, Topramezone (100 g/ha) [2]: 0 | herbicidal damage scoring, Topramezone (100 g/ha) [3]: 0

CS(=O)(=O)c1ccc(C(=O)C2C(=O)CCCC2=O)c(Cl)c1COCC(F)(F)F [Tembotrione, tembotrione]
herbicidal damage scoring, Tembotrione (400 gai/ha) (wild-type tobacco plants): 97 and 95 and 98 | tolerance compared to SEQ ID 122 expressing plants [4]: increased tolerance | herbicidal damage scoring, Tembotrione (400 gai/ha) ([4]; Table 3.2, 14 days after treatment, best events, SEQ ID 14, 100=complete death, 0=no damage, one value per event): 25 and 30 | herbicidal damage scoring, Tembotrione (400 gai/ha) [5]: 45 and 50 and 55 and 65 and 40

CS(=O)(=O)c1ccc(C(=O)C2C(=O)CCCC2=O)c([N+](=O)[O-])c1 [Mesotrione, mesotrione]
IC50 [6]: 32.2 µM | IC50 [7]: 44.8 µM | IC50 [8]: 12.8 µM | IC50 [9]: 31.9 µM | IC50 [10]: 31.9 µM | tolerance compared to SEQ ID 122 expressing plants [4]: equally tolerant

CS(=O)(=O)c1cc(C(F)(F)F)ccc1C(=O)c1cnoc1C1CC1 [Isoxaflutole, isoxaflutole]
herbicidal damage scoring, Isoxaflutole (400 gai/ha) (wild-type tobacco plants): 95 and 97 and 96 | tolerance compared to SEQ ID 122 expressing plants [4]: equally tolerant
